Experiments:
[1] = compound: C1CC(C2=C(C1)C3=C(N2)C=CC(=C3)Cl)C(=O)N [Selisistat] + CC1(C)CCC(c2ccc(Cl)cc2)=C(CN2CCN(c3ccc(C(=O)NS(=O)(=O)c4ccc(N[C@H](CCN5CCOCC5)CSc5ccccc5)c(S(=O)(=O)C(F)(F)F)c4)cc3)CC2)C1 [Navitoclax] (partner 0.5 µM); test: relative viability (nuclei count vs DMSO), 5 days (fraction); higher = more cells survive
How it was run: (§1)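 Relative viability is defined as nuclei in treated wells over nuclei in vehicle wells. Duplicate plates were run and medians reported. Lung cancer cell lines in 1536-well plates were dosed by pin tool one day after seeding, with one drug or with a fixed anchor-drug dose plus five library-drug doses (not always all listed) in √10 steps, and nuclei were counted after 5 days.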

[2] = compound: c1ccc2c(CCNc3ccc(Nc4ccncc4)cc3)c[nH]c2c1 [Serdemetan] + COc1cc2c(Oc3ccc(NC(=O)C4(C(=O)Nc5ccc(F)cc5)CC4)cc3F)ccnc2cc1OCCCN1CCOCC1 [Foretinib] (partner 0.25 µM); test: as above
How it was run: as §1

Cell Line | relative viability ([1]; first compound 0.4 µM) | relative viability ([1]; first compound 1.265 µM) | relative viability ([1]; first compound 4 µM) | relative viability ([1]; first compound 12.65 µM) | relative viability ([1]; first compound 40 µM) | relative viability ([2]; first compound 0.04 µM) | relative viability ([2]; first compound 0.1265 µM) | relative viability ([2]; first compound 0.4 µM) | relative viability ([2]; first compound 1.265 µM) | relative viability ([2]; first compound 4 µM)
NCI-H1437 | 1.13 | 1.1 | 1.1 | 1.01 | 0.919 | 1.31 | 1.19 | 1.27 | 1.08 | 0.963
NCI-H460 | 1.2 | 1.16 | – | 1.08 | 1.3 | 0.895 | 1.01 | 0.883 | 0.597 | 0.104
NCI-H1666 | 1.04 | 1.04 | 0.911 | 0.77 | 0.916 | 0.967 | 0.909 | 0.937 | 0.591 | 0.742
NCI-H1651 | 0.902 | 0.974 | 0.934 | 1 | 0.945 | 0.724 | 0.515 | 0.407 | 0.465 | 0.235
NCI-H1755 | 1.08 | 1.08 | 1 | 0.99 | 1.06 | 0.901 | 0.934 | 0.846 | 0.674 | 0.599
HARA | 1.17 | 1.08 | 1.17 | 1.13 | 1.22 | 0.84 | 0.903 | 0.871 | 0.585 | 0.452
NCI-H596 | 0.952 | 0.959 | 0.944 | 0.904 | 0.895 | 0.87 | 0.703 | 0.684 | 0.355 | 0.402
NCI-H23 | 0.853 | 0.936 | – | 0.943 | 0.876 | 0.891 | 1.01 | 0.831 | 0.791 | 0.706
A549 | 1.27 | 1.14 | 1.34 | 1.28 | 1.28 | 0.964 | 0.969 | 1.02 | 0.627 | 0.177
LCLC-97TM1 | 0.535 | 0.476 | 0.621 | 0.473 | 0.483 | 0.935 | 0.899 | 0.918 | – | 0.767
EPLC-272H | 1.07 | 1.16 | – | 1.23 | 1.25 | 0.881 | 0.684 | 0.305 | 0.459 | 0.477
NCI-H1915 | 0.782 | 0.776 | 0.83 | 0.797 | 0.804 | 1.14 | 1.09 | 1.07 | 1.03 | 0.837
NCI-H2405 | 0.785 | – | – | 0.804 | 0.793 | 1.03 | 1.01 | 1.01 | 0.902 | 0.764
NCI-H322M | 1.26 | 1.18 | – | 1.26 | 1.47 | 0.946 | 0.887 | 0.909 | 0.963 | 0.481
NCI-H2170 | 0.601 | 0.623 | 0.618 | 0.708 | 0.713 | 1.02 | 0.97 | 1.05 | 0.637 | 1.14
NCI-H1395 | 1.19 | 1.14 | 1.07 | 1.13 | 0.937 | 1 | 0.969 | 0.926 | 0.883 | 0.571
IA-LM | 0.787 | 0.82 | 0.946 | 0.818 | 0.835 | 1.04 | 1.06 | 0.877 | 0.999 | 0.414
NCI-H838 | 1.31 | 1.2 | 1.13 | 1.12 | 1.22 | 1.03 | 0.983 | 1.02 | 0.951 | 1.09
CAL-12T | 1.19 | 1.04 | 1.16 | 1.22 | 1.14 | 1.07 | 1.15 | 1.04 | 1.03 | 0.969
EBC-1 | 0.526 | 0.416 | 0.433 | 0.448 | 0.459 | 0.12 | 0.123 | 0.107 | 0.124 | 0.129
